Measured values taken from patent publication US9943613B2 (priority 2012, dated 2018).

Assays:
[1] = test system: RES-LTC chondrosarcoma cell line; assay: Modified MTT assay for metabolic activity; type: cell-based; conditions: 48 hour timepoint; for MTT metabolic activity: FIG. 3
Method: Assays: Modified MTT assay for metabolic activity (absorbance).
(§1) Assay data analysis: Expressed as % of the positive controls for MTT and picogreen. MTT absorbance measures then normalized to the μgDNA/ml generated by the picogreen assay.
(§2) Cell cultures: RES-LTC chondrosarcoma cell line. Expresses hyaline-like chondrocyte phenotype and reliably produces large, homogeneous cell populations
(§3) Cell cultures in 96 well plates. Each compound, at a fixed concentration, was added in triplicate for each assay. MTT and picogreen assays in separate plates (assays interfere with each other). All plates treated together. Assays run at 48 hour timepoint. Microscopy performed to confirm findings.

[2] = test system: glycosaminoglycans (GAG) in the cartilage; assay: T1 value map versus Safranin-O/fast green histology of cartilage-bone plug equilibrated in contrast agent (GAG targeting); conditions: human tibial plateau cartilage-bone plug equilibrated in contrast agent
Excerpt: Cartilage-bone plug excised from a human tibial plateau that was retrieved from total knee replacement surgery was equilibrated in DAB-4 linked nitroxide citrate. T1 value map (as acquired for FIG. 1) is compared to histology in FIG. 2: • a) T1 value map: orange color is lower T1 value indicating more contrast agent and more glycosaminoglycans (GAG) in the cartilage. • b) Histology of the same specimen stained with Safranin-O/fast green.

[3] = test system: human knee; conditions: 10 minutes after intraarticular injection of 25 ml of 5 mM solution in PBS, 3 Tesla, FIG. 9
Method: Coronal T1-weighted MR images of a human knee were taken in a human cadaver. Coronal T1-weighted MR contrast images were also taken ex vivo in a human cadaver 10 minutes after intraarticular injection of 25 ml of a 5 mM solution of DAB-4 citrate diluted in PBS. […] All images were performed on a Siemens Skyra 3 Tesla magnet using a 15 channel transmit/receive QED knee coil. (14 cm FOV (field of view); 3 mm thick slice; 384×384 matrix; TR 800 ms; TE 8.6 ms; Turbo factor of 2; receiver bandwidth 350 Hz/pixel.)

[4] = test system: rabbit stifle joints; assay: Single intra-articular injection toxicity model in rabbit stifles; type: in vivo, New Zealand White rabbits; conditions: for Synovial inflammation scoring: versus PBS-injected stifles, FIG. 7
Excerpt: Rabbits were euthanized two weeks post-injection. Both left and right stifles were harvested and immediately fixed in 10% neutral buffered formalin, then set for histological processing. Five-micron thick slides from each knee were stained with Hematoxylin & Eosin and Safranin-O.

[5] = test system: RES-LTC chondrosarcoma cell line; assay: Quantitative picogreen assay for cell proliferation; type: cell-based; conditions: 10 mM, 48 hour timepoint, FIG. 4
Method: Quantitative picogreen for cell proliferation (μgDNA/ml).
as §1, §2, §3

[6] = two weeks post-injection, histology

DAB-dendrimer-(NH-3-CO-PROXYL)8 [DAB-8 linked nitroxide]
MTT metabolic activity ([1]; concentrations above 1 mM): less metabolic activity than positive controls (untreated), or DAB-4 linked nitroxide and Magnevist

Citric Acid Salt of DAB-4 Linked Nitroxide [DAB-4 linked nitroxide citrate]
agreement of T1 value map with histology stain for GAG concentration [2]: high GAG concentration in the same areas indicated by DAB-4 linked nitroxide on the T1 value map and the stain on the histology map
T1-weighted MR contrast of joint fluid and cartilage surfaces [3]: the joint fluid (asterisk) is now bright and outlines the cartilage surfaces
detection of cartilage defect on T1-weighted MR image [3]: A partial thickness cartilage defect (arrow) is easily identified

DAB-dendrimer-(NH-3-CO-PROXYL)4 [DAB-4 linked nitroxide]
agreement of T1 value map with histology stain for GAG concentration [2]: high GAG concentration in the same areas as indicated by DAB-4 linked nitroxide on the T1 value map and the stain on the histology map
Synovial inflammation scoring [4, 6]: no difference between Magnevist or DAB-4 linked nitroxide and the PBS-injected stifles
MTT metabolic activity ([1]; 1-10 mM): less metabolic activity than positive controls but greater than for DAB-8 linked nitroxide

CNC[C@H](O)[C@@H](O)[C@H](O)[C@H](O)CO.CNC[C@H](O)[C@@H](O)[C@H](O)[C@H](O)CO.O=C([O-])CN(CCN(CC(=O)[O-])CC(=O)O)CCN(CC(=O)[O-])CC(=O)O.[Gd+3] [Magnevist]
Picogreen cell proliferation [5]: low cell proliferation
clinical signs of inflammation or lameness ([4]; single intra-articular injection, two weeks observation): No animals presented clinical signs of inflammation or lameness
Modified Mankin scoring (structural damage / joint degeneration) ([4]; two weeks post-injection, histology, FIG. 6): did not uncover any signs of structural damage and/or degenerative response
Synovial inflammation scoring [4, 6]: no difference between Magnevist or DAB-4 linked nitroxide and the PBS-injected stifles
MTT data normalized to μgDNA/ml (health of the cells) ([1]; 10 mM, FIG. 5): abnormally high
